Laboratory results published in ChEMBL document CHEMBL1138996, “Biological evaluation of isothiazoloquinolones containing aromatic heterocycles at the 7-position: In vitro activity of a series of potent antibacterial agents that are effective against methicillin-resistant Staphylococcus aureus” (Bioorg Med Chem Lett, 2006).
Converted amounts (≈) assume the structure as drawn.

Assays:
[1] = tested on: Staphylococcus aureus; test: Antibacterial activity against Staphylococcus aureus ATCC 29213; type: functional
[2] = tested on: HEp-2; test: Cytotoxicity against Hep2 cell line; type: functional; conditions: Homo sapiens
[3] = molecular target: DNA topoisomerase 4 subunit A (Staphylococcus aureus, UniProt P0C1U9); test: Inhibitory activity against Staphylococcus aureus ATCC 29213 wild type Topo 4
[4] = tested on: Staphylococcus aureus; test: Antibacterial activity against methicillin-resistant Staphylococcus aureus ATCC 700699; type: functional
[5] = tested on: Escherichia coli; test: Antibacterial activity against Escherichia coli ATCC 25922; type: functional
[6] = tested on: Stenotrophomonas maltophilia; test: Antibacterial activity against Stenotrophomonas maltophilia ATCC 13637; type: functional
[7] = tested on: Enterococcus faecium; test: Antibacterial activity against Enterococcus faecium ATCC 49032; type: functional
[8] = tested on: Klebsiella pneumoniae; test: Antibacterial activity against Klebsiella pneumoniae ATCC 13883; type: functional
[9] = tested on: Haemophilus influenzae; test: Antibacterial activity against Haemophilus influenzae type b ACH-0056; type: functional
[10] = tested on: Salmonella typhimurium; test: Antibacterial activity against Salmonella Typhimurium ATCC 14028; type: functional, Salmonella enterica subsp. enterica serovar Typhimurium; conditions: Salmonella enterica
[11] = tested on: Pseudomonas aeruginosa; test: Antibacterial activity against Pseudomonas aeruginosa ATCC 27853; type: functional
[12] = tested on: Streptococcus pneumoniae; test: Antibacterial activity against Streptococcus pneumoniae ATCC 49619; type: functional
[13] = tested on: Moraxella catarrhalis; test: Antibacterial activity against Moraxella catarrhalis ATCC 8176; type: functional
[14] = tested on: Streptococcus pyogenes; test: Antibacterial activity against Streptococcus pyogenes ATCC 19615; type: functional
[15] = tested on: Enterococcus faecalis; test: Antibacterial activity against Enterococcus faecalis ATCC 29212; type: functional

Chain of DNA topoisomerase 4 subunit A (P0C1U9 whole entry): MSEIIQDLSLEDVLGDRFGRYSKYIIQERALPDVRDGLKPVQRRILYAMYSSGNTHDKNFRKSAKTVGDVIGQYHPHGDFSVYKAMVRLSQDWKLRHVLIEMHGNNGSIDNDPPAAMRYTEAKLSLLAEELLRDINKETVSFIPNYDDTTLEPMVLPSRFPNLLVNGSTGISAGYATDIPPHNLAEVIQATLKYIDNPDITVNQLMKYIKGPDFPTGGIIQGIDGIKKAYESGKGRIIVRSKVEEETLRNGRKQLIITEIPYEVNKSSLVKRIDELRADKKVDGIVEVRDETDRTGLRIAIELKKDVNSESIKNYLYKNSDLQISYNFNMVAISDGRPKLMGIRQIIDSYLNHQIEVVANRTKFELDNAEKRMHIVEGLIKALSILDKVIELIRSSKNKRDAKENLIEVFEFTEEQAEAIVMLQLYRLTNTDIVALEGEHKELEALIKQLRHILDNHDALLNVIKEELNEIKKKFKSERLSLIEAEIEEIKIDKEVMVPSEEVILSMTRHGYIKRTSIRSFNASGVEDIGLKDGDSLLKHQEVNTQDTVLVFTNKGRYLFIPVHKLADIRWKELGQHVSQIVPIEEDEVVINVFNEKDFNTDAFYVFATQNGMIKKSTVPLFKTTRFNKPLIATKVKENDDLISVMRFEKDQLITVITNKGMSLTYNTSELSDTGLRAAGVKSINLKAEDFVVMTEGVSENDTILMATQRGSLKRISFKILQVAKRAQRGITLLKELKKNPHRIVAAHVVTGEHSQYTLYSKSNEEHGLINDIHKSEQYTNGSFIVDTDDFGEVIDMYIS

| Compound | MIC [1] | CC50 [2] | IC50 [3] | MIC [4] | MIC [5] | MIC [6] | MIC [7] | MIC [8] | MIC [9] | MIC [10] | MIC [11] | MIC [12] | MIC [13] | MIC [14] | MIC [15] |
| --- | --- | --- | --- | --- | --- | --- | --- | --- | --- | --- | --- | --- | --- | --- | --- |
| O=c1[nH]sc2c1c(=O)c1cc(F)c(-c3ccccc3)cc1n2C1CC1 | 0.0035 µg/mL (≈ 0.00993 µM) | > 100 µM | 6.3 µM | 16 µg/mL (≈ 45.4 µM) | 0.06 µg/mL (≈ 0.17 µM) | – | – | – | – | – | – | – | – | – | – |
| Cc1cc(-c2cc3c(cc2F)c(=O)c2c(=O)[nH]sc2n3C2CC2)ccn1 | 0.004 µg/mL (≈ 0.0109 µM) | 36 µM | 26 µM | 0.5 µg/mL (≈ 1.36 µM) | 0.059 µg/mL (≈ 0.161 µM) | 1 µg/mL (≈ 2.72 µM) | 0.25 µg/mL (≈ 0.68 µM) | 0.125 µg/mL (≈ 0.34 µM) | 0.015 µg/mL (≈ 0.0408 µM) | 0.125 µg/mL (≈ 0.34 µM) | 2 µg/mL (≈ 5.44 µM) | 0.029 µg/mL (≈ 0.0789 µM) | 0.0037 µg/mL (≈ 0.0101 µM) | 0.04 µg/mL (≈ 0.109 µM) | 0.125 µg/mL (≈ 0.34 µM) |
| NCc1ccc(-c2cc3c(cc2F)c(=O)c2c(=O)[nH]sc2n3C2CC2)cn1 | 0.13 µg/mL (≈ 0.34 µM) | > 100 µM | 0.7 µM | 32 µg/mL (≈ 83.7 µM) | 0.059 µg/mL (≈ 0.154 µM) | – | – | – | – | – | – | – | – | – | – |
| O=c1[nH]sc2c1c(=O)c1cc(F)c(-c3cccc4ncccc34)cc1n2C1CC1 | 0.016 µg/mL (≈ 0.0397 µM) | – | 33 µM | 2 µg/mL (≈ 4.96 µM) | 0.016 µg/mL (≈ 0.0397 µM) | 4 µg/mL (≈ 9.91 µM) | 0.25 µg/mL (≈ 0.62 µM) | 0.5 µg/mL (≈ 1.24 µM) | 0.028 µg/mL (≈ 0.0694 µM) | 0.5 µg/mL (≈ 1.24 µM) | 2 µg/mL (≈ 4.96 µM) | 0.061 µg/mL (≈ 0.151 µM) | 0.0081 µg/mL (≈ 0.0201 µM) | 0.25 µg/mL (≈ 0.62 µM) | 0.125 µg/mL (≈ 0.31 µM) |
| Cc1cc(-c2cc3c(cc2F)c(=O)c2c(=O)[nH]sc2n3C2CC2)cc(C)n1 | 0.0038 µg/mL (≈ 0.00996 µM) | 50 µM | 48 µM | 0.25 µg/mL (≈ 0.655 µM) | 0.031 µg/mL (≈ 0.0813 µM) | – | – | – | – | – | – | – | – | – | – |
| O=c1[nH]sc2c1c(=O)c1cc(F)c(-c3ccc(F)nc3)cc1n2C1CC1 | 0.015 µg/mL (≈ 0.0404 µM) | > 100 µM | 12 µM | 2 µg/mL (≈ 5.39 µM) | 0.03 µg/mL (≈ 0.0808 µM) | 1 µg/mL (≈ 2.69 µM) | 0.11 µg/mL (≈ 0.296 µM) | 0.125 µg/mL (≈ 0.337 µM) | 0.03 µg/mL (≈ 0.0808 µM) | 0.125 µg/mL (≈ 0.337 µM) | 0.5 µg/mL (≈ 1.35 µM) | 0.125 µg/mL (≈ 0.337 µM) | 0.0037 µg/mL (≈ 0.00996 µM) | 0.059 µg/mL (≈ 0.159 µM) | 0.125 µg/mL (≈ 0.337 µM) |
| O=c1[nH]sc2c1c(=O)c1cc(F)c(-c3ccc4cnccc4c3)cc1n2C1CC1 | 0.002 µg/mL (≈ 0.00496 µM) | 22 µM | 3.6 µM | 0.5 µg/mL (≈ 1.24 µM) | 0.13 µg/mL (≈ 0.322 µM) | – | – | – | – | – | – | – | – | – | – |
| O=c1[nH]sc2c1c(=O)c1cc(F)c(-c3cccc4cnccc34)cc1n2C1CC1 | 0.016 µg/mL (≈ 0.0397 µM) | 45 µM | 23 µM | > 64 µg/mL | 0.061 µg/mL (≈ 0.151 µM) | – | – | – | – | – | – | – | – | – | – |
| COc1ncc(-c2cc3c(cc2F)c(=O)c2c(=O)[nH]sc2n3C2CC2)c(OC)n1 | 0.019 µg/mL (≈ 0.0458 µM) | > 100 µM | 42 µM | 1 µg/mL (≈ 2.41 µM) | 0.14 µg/mL (≈ 0.338 µM) | 2 µg/mL (≈ 4.83 µM) | 0.17 µg/mL (≈ 0.41 µM) | 0.5 µg/mL (≈ 1.21 µM) | 0.14 µg/mL (≈ 0.338 µM) | 0.125 µg/mL (≈ 0.302 µM) | > 64 µg/mL | 0.079 µg/mL (≈ 0.191 µM) | 0.021 µg/mL (≈ 0.0507 µM) | 0.079 µg/mL (≈ 0.191 µM) | 0.058 µg/mL (≈ 0.14 µM) |
| O=c1[nH]sc2c1c(=O)c1cc(F)c(-c3cncc4ccccc34)cc1n2C1CC1 | 0.028 µg/mL (≈ 0.0694 µM) | 51 µM | > 38 µM | 8 µg/mL (≈ 19.8 µM) | 0.48 µg/mL (≈ 1.19 µM) | – | – | – | – | – | – | – | – | – | – |
| O=C(O)c1cn(C2CC2)c2cc(N3CCNCC3)c(F)cc2c1=O [CIPROFLOXACIN] | 0.22 µg/mL (≈ 0.664 µM) | > 100 µM | – | 32 µg/mL (≈ 96.6 µM) | – | 0.28 µg/mL (≈ 0.845 µM) | 2 µg/mL (≈ 6.04 µM) | 0.033 µg/mL (≈ 0.0996 µM) | 0.018 µg/mL (≈ 0.0543 µM) | 0.018 µg/mL (≈ 0.0543 µM) | – | 0.56 µg/mL (≈ 1.69 µM) | 0.033 µg/mL (≈ 0.0996 µM) | 0.28 µg/mL (≈ 0.845 µM) | 0.56 µg/mL (≈ 1.69 µM) |
| Cc1ccc(-c2cc3c(cc2F)c(=O)c2c(=O)[nH]sc2n3C2CC2)c(C)n1 | 0.13 µg/mL (≈ 0.341 µM) | > 100 µM | 8 µM | > 64 µg/mL | 0.5 µg/mL (≈ 1.31 µM) | – | – | – | – | – | – | – | – | – | – |
| O=c1[nH]sc2c1c(=O)c1cc(F)c(-c3cccc4cccnc34)cc1n2C1CC1 | 0.13 µg/mL (≈ 0.322 µM) | 79 µM | > 40 µM | 16 µg/mL (≈ 39.7 µM) | 0.75 µg/mL (≈ 1.86 µM) | – | – | – | – | – | – | – | – | – | – |
| O=c1[nH]sc2c1c(=O)c1cc(F)c(-c3cncnc3)cc1n2C1CC1 | 0.025 µg/mL (≈ 0.0705 µM) | 18 µM | 3.3 µM | 8 µg/mL (≈ 22.6 µM) | 0.12 µg/mL (≈ 0.339 µM) | – | – | – | – | – | – | – | – | – | – |
| COc1ccc(-c2cc3c(cc2F)c(=O)c2c(=O)[nH]sc2n3C2CC2)cn1 | 0.023 µg/mL (≈ 0.06 µM) | > 100 µM | 26 µM | 16 µg/mL (≈ 41.7 µM) | 0.015 µg/mL (≈ 0.0391 µM) | – | – | – | – | – | – | – | – | – | – |
| O=c1[nH]sc2c1c(=O)c1cc(F)c(-c3cncc(C4CCCCN4)c3)cc1n2C1CC1 (stereo unspecified) | 0.12 µg/mL (≈ 0.275 µM) | 6 µM | 5 µM | 8 µg/mL (≈ 18.3 µM) | 0.46 µg/mL (≈ 1.05 µM) | – | – | – | – | – | – | – | – | – | – |
| Cc1ccc(-c2cc3c(cc2F)c(=O)c2c(=O)[nH]sc2n3C2CC2)cn1 | 0.0037 µg/mL (≈ 0.0101 µM) | 31 µM | 8.5 µM | 1 µg/mL (≈ 2.72 µM) | 0.037 µg/mL (≈ 0.101 µM) | – | – | – | – | – | – | – | – | – | – |
| O=c1[nH]sc2c1c(=O)c1cc(F)c(-c3ccnc(CO)c3)cc1n2C1CC1 | 0.034 µg/mL (≈ 0.0887 µM) | > 100 µM | 4.8 µM | 32 µg/mL (≈ 83.5 µM) | 0.14 µg/mL (≈ 0.365 µM) | – | – | – | – | – | – | – | – | – | – |
| Cn1ccc2cc(-c3cc4c(cc3F)c(=O)c3c(=O)[nH]sc3n4C3CC3)ccc21 | 0.065 µg/mL (≈ 0.16 µM) | > 100 µM | 3.6 µM | 8 µg/mL (≈ 19.7 µM) | 1 µg/mL (≈ 2.47 µM) | – | – | – | – | – | – | – | – | – | – |
| COc1c(N2C[C@@H]3CCCN[C@@H]3C2)c(F)cc2c(=O)c(C(=O)O)cn(C3CC3)c12 [MOXIFLOXACIN] | 0.061 µg/mL (≈ 0.152 µM) | > 100 µM | 0.8 µM | 2 µg/mL (≈ 4.98 µM) | 0.013 µg/mL (≈ 0.0324 µM) | 0.031 µg/mL (≈ 0.0772 µM) | 0.125 µg/mL (≈ 0.311 µM) | 0.031 µg/mL (≈ 0.0772 µM) | 0.013 µg/mL (≈ 0.0324 µM) | 0.061 µg/mL (≈ 0.152 µM) | 1 µg/mL (≈ 2.49 µM) | 0.125 µg/mL (≈ 0.311 µM) | 0.061 µg/mL (≈ 0.152 µM) | 0.061 µg/mL (≈ 0.152 µM) | 0.125 µg/mL (≈ 0.311 µM) |
